Where a SMILES comes first, the peptide text is derived from it. Bridges are numbered along the chain shown (N, C = ends). [ ]: non-standard residue; d: D form. The star is where a group is joined. hPhe(3-Cl-4-CF3) = N[C@@H](CCc1ccc(C(F)(F)F)c(Cl)c1)C(=O)O; NPrPhe(4-CF3) = CCCN[C@@H](Cc1ccc(C(F)(F)F)cc1)C(=O)O; NEtPhe(4-CF3) = CCN[C@@H](Cc1ccc(C(F)(F)F)cc1)C(=O)O; NMeGly(cPent) = CN[C@H](C(=O)O)C1CCCC1; NMeD = CN[C@@H](CC(=O)O)C(=O)O; NMeL = CN[C@@H](CC(C)C)C(=O)O; Azetidin(1-yl) = C1CN(*)C1; Morpholide = C1CN(*)CCO1; NMeA = CN[C@@H](C)C(=O)O; Ac5c = NC1(C(=O)O)CCCC1; Aze = O=C(O)[C@@H]1CCN1; Aib = CC(C)(N)C(=O)O; Sar = CNCC(=O)O
Columns and labels:
[1] = biological target: GDP-bound HRAS wild-type protein (Homo sapiens, UniProt P01112); test: Binding to HRAS by surface plasmon resonance (SPR), Single Cycle Kinetics; conditions: for HRAS/KRAS (ratio of KD value with respect to HRAS to KD value with respect to KRAS): GDP-bound HRAS wild-type vs GDP-bound KRAS wild-type
GDP-bound HRAS wild-type protein, sequence (P01112 whole entry): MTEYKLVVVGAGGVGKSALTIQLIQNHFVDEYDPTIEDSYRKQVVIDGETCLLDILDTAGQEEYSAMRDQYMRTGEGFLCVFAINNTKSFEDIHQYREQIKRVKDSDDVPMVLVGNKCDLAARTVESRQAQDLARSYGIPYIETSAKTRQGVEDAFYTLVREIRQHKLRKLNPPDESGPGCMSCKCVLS

[2] = biological target: GDP-bound NRAS wild-type protein (Homo sapiens, UniProt P01111); test: Binding to NRAS by surface plasmon resonance (SPR), Single Cycle Kinetics; conditions: for NRAS/KRAS (ratio of KD value with respect to NRAS to KD value with respect to KRAS): GDP-bound NRAS wild-type vs GDP-bound KRAS wild-type
GDP-bound NRAS wild-type protein, sequence (P01111 whole entry): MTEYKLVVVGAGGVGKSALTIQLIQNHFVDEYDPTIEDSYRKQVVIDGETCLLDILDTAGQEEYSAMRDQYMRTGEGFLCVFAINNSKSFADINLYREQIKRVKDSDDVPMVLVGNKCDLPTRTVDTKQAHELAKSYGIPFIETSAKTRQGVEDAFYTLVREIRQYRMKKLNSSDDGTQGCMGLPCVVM

[3] = SPR, GDP-bound wild-type proteins

## CCO[C@@H]1C[C@H]2C(=O)NC3(CC(C)(C)C3)C(=O)N(C)[C@@H](C3CCCC3)C(=O)N(C)[C@H](C(=O)N(C)C)CC(=O)N(C)[C@@H](CC(C)C)C(=O)N[C@@H]([C@@H](C)CC)C(=O)N(C3CC3)CC(=O)N(C)[C@H]3C/C=C\CCN(C3=O)[C@@H](Cc3ccc(C)cc3)C(=O)N(C)CC(=O)N[C@@H](CCc3cc(F)c(C(F)(F)F)c(F)c3)C(=O)N2C1 [PP2109]
[1]; SPR
  HRAS/KRAS (ratio of KD value with respect to HRAS to KD value with respect to KRAS): A (a compound having 10 or more and less than 20 is denoted as A)
[2]; SPR
  NRAS/KRAS (ratio of KD value with respect to NRAS to KD value with respect to KRAS): A (a compound having 10 or more and less than 20 is denoted as A)

## CCCN1C(=O)[C@@H]2CCN2C(=O)[C@H](C)N(C)C(=O)[C@H]([C@@H](C)CC)NC(=O)[C@H](CC(C)C)N(C)C(=O)C[C@@H](C(=O)N2CCC2)N(C)C(=O)[C@H](C2CCCC2)N(C)C(=O)C2(CCCC2)NC(=O)[C@@H]2CCCN2C(=O)[C@H](CCc2ccc(C(F)(F)F)c(Cl)c2)NC(=O)CN(C)C(=O)[C@@H]1Cc1ccc(C(F)(F)F)cc1 [PP0181] ([NMeL]I[NMeA][Aze][NPrPhe(4-CF3)][Sar][hPhe(3-Cl-4-CF3)]P[Ac5c][NMeGly(cPent)][NMeD]-{Azetidin(1-yl)}; lactam N-11)
[1]; SPR
  HRAS/KRAS (ratio of KD for GDP-bound HRAS wild-type to KD for KRAS): B (a compound having 3 or more and less than 10 is denoted as B)
[2]; SPR
  NRAS/KRAS (ratio of KD for GDP-bound NRAS wild-type to KD for KRAS): C (A compound having a KD ratio of 0.1 or more and less than 3 is denoted as C)

## C#CC[C@H]1C(=O)N[C@@H]([C@@H](C)CC)C(=O)N(C)CC(=O)N(C)[C@H]2C/C=C\CCN(C2=O)[C@@H](Cc2ccc(C(F)(F)F)cc2)C(=O)N(C)CC(=O)N[C@@H](CCc2ccc(C(F)(F)F)c(Cl)c2)C(=O)N2CC3(CC3)C[C@H]2C(=O)NC2(CC(C)(C)C2)C(=O)N(C)[C@@H](C2CCCC2)C(=O)N(C)[C@H](C(=O)N(C)C)CC(=O)N1C [PP2980]
[1]; [3]
  HRAS/KRAS (ratio of KD value with respect to GDP-bound HRAS wild-type protein to KD value with respect to KRAS): B (a compound having 3 or more and less than 10 is denoted as B)
[2]; [3]
  NRAS/KRAS (ratio of KD value with respect to GDP-bound NRAS wild-type protein to KD value with respect to KRAS): A (a compound having 10 or more and less than 20 is denoted as A)

## CC[C@H](C)[C@@H]1NC(=O)[C@H](CC(C)C)N(C)C(=O)C[C@@H](C(=O)N2CCOCC2)N(C)C(=O)[C@H](C2CCCC2)N(C)C(=O)C(C)(C)NC(=O)[C@@H]2CCCN2C(=O)[C@H](CCc2ccc(C(F)(F)F)c(Cl)c2)NC(=O)CN(C)C(=O)[C@H](Cc2ccc(C(F)(F)F)cc2)N(CC)C(=O)CN(C)C(=O)CN(C)C1=O [PP0235] ([NMeL]I[Sar][Sar][NEtPhe(4-CF3)][Sar][hPhe(3-Cl-4-CF3)]P[Aib][NMeGly(cPent)][NMeD]-Morpholide; lactam N-11)
[1]; SPR
  HRAS/KRAS (ratio of KD for GDP-bound HRAS wild-type to KD for KRAS): C (A compound having a KD ratio of 0.1 or more and less than 3 is denoted as C)
[2]; SPR
  NRAS/KRAS (ratio of KD for GDP-bound NRAS wild-type to KD for KRAS): B (a compound having 3 or more and less than 10 is denoted as B)

## CCC[C@H]1C(=O)N[C@@H]([C@@H](C)CC)C(=O)N(C2CC2)CC(=O)N(C)[C@H]2C/C=C\CCN(C2=O)[C@@H](Cc2ccc(C(F)(F)F)cc2)C(=O)N(C)CC(=O)N[C@@H](CCc2ccc(C(F)(F)F)c(OC)c2)C(=O)N2C[C@H](OCC)C[C@H]2C(=O)NC2(CC(C)(C)C2)C(=O)N(C)[C@@H](CC2CC2)C(=O)N(C)[C@H](C(=O)N(C)C)CC(=O)N1C [PP2815]
[1]; class symbols
  HRAS/KRAS (ratio of KD value with respect to GDP-bound HRAS wild-type protein to KD value with respect to KRAS): A (a compound having 10 or more and less than 20 is denoted as A)
[2]; class symbols
  NRAS/KRAS (ratio of KD value with respect to GDP-bound NRAS wild-type protein to KD value with respect to KRAS): A (a compound having 10 or more and less than 20 is denoted as A)

## CCO[C@H](C)[C@@H]1NC(=O)[C@H](CC(C)C)N(C)C(=O)C[C@@H](C(=O)N(C)CC)N(C)C(=O)[C@H](C2CCCC2)N(C)C(=O)C2(CC(C)(C)C2)NC(=O)[C@@H]2C[C@H](C)CN2C(=O)[C@H](CCc2ccc(C(F)(F)F)c(OC)c2)NC(=O)CN(C)C(=O)[C@H](Cc2ccc(C)cc2)N2CC/C=C\C[C@@H](C2=O)N(C)C(=O)[C@@H]2CCCN2C1=O [PP2419]
[1]; SPR
  HRAS/KRAS (ratio of KD value with respect to HRAS to KD value with respect to KRAS): A (a compound having 10 or more and less than 20 is denoted as A)
[2]; SPR
  NRAS/KRAS (ratio of KD value with respect to NRAS to KD value with respect to KRAS): A (a compound having 10 or more and less than 20 is denoted as A)

## CCC(CC)[C@H]1C(=O)N(C)[C@H](C(=O)N(C)C)CC(=O)N(C)[C@@H](COC)C(=O)N[C@@H]([C@@H](C)CC)C(=O)N2CCC[C@H]2C(=O)N(C)[C@H]2C/C=C\CCN(C2=O)[C@@H](Cc2ccc(C(F)F)cc2)C(=O)N(C)CC(=O)N[C@@H](CCc2ccc(Cl)c(Cl)c2)C(=O)N2C[C@H](OC3CCCC3)C[C@H]2C(=O)NC2(CC(C)(C)C2)C(=O)N1C [PP2652]
[1]; class symbols
  HRAS/KRAS (ratio of KD value with respect to GDP-bound HRAS wild-type protein to KD value with respect to KRAS): A (a compound having 10 or more and less than 20 is denoted as A)
[2]; class symbols
  NRAS/KRAS (ratio of KD value with respect to GDP-bound NRAS wild-type protein to KD value with respect to KRAS): AA (a compound having 20 or more is denoted as AA)

## CCO[C@@H]1C[C@H]2C(=O)NC3(CCC3)C(=O)N(C)[C@@H](C(CC)CC)C(=O)N(C)[C@H](C(=O)N(C)C)CC(=O)N(C)[C@@H](CC)C(=O)N[C@@H]([C@@H](C)CC)C(=O)N(C)CC(=O)N(C)[C@H]3C/C=C\CCN(C3=O)[C@@H](Cc3ccc(C(F)(F)F)cc3)C(=O)N(C)CC(=O)N[C@@H](CCc3cc(F)c(C(F)(F)F)c(F)c3)C(=O)N2C1 [PP1200]
[1]; KD ratio, SPR
  HRAS/KRAS (ratio of KD value with respect to HRAS to KD value with respect to KRAS): A (a compound having 10 or more and less than 20 is denoted as A)
[2]; KD ratio, SPR
  NRAS/KRAS (ratio of KD value with respect to NRAS to KD value with respect to KRAS): AA (a compound having 20 or more is denoted as AA)

— US20250230193A1, “CYCLIC COMPOUND HAVING SELECTIVE KRAS INHIBITORY EFFECT ON HRAS AND NRAS” (CHUGAI SEIYAKU KABUSHIKI KAISHA, priority 2022, published 2025)
